Measured values from patent US8546414B2, “Ion channel modulators and methods of use” (Vertex Pharmaceuticals Incorporated, priority 2004, dated 2013).

Assays:
CaV2.2 = target: T1, CaV2.2 (Homo sapiens, UniProt Q00975); experiment: VIPR optical membrane potential assay with electrical stimulation, CaV2.2; assay type: cell-based; conditions: Table 9, CaV 2.2 receptors
T1 construct: expressed in transfected cells; host or cells: HEK293
Method: A. Optical Methods for Assaying CaV Inhibition Properties of Compounds:
(§1) Antagonist properties of test compounds were assessed as follows. Cells expressing the CaV of interest were placed into microtiter plates. After an incubation period, the cells were stained with fluorescent dyes sensitive to the transmembrane potential. The test compounds were added to the microtiter plate. The cells were stimulated with electrical means to evoke a CaV dependent membrane potential change from unblocked channels, which was detected and measured with trans-membrane potential-sensitive dyes. Antagonists were detected as a decreased membrane potential response to the stimulus.
(§2) VIPR® Optical Membrane Potential Assay Method with Electrical Stimulation
The following is an example of how CaV2.2 inhibition activity is measured using the optical membrane potential method. Other subtypes are performed in an analogous mode in a cell line expressing the CaV of interest.
HEK293 cells stably expressing CaV2.2 are plated into 96-well microtiter plates. After an appropriate incubation period, the cells are stained with the voltage sensitive dyes CC2-DMPE/DiSBAC2(3) as follows.
(§3) 2X CC2-DMPE=20 μM CC2-DMPE: 10 mM CC2-DMPE is vortexed with an equivalent volume of 10% Pluronic, followed by vortexing in required amount of HBSS containing 10 mM HEPES. Each cell plate will require 5 mL of 2×CC2-DMPE. 50 μL of 2×CC2-DMPE is added to wells containing washed cells, resulting in a 10 μM final staining concentration. The cells are stained for 30 minutes in the dark at RT.
Vortex in required amount of Bath X with beta-cyclodextrin. Each 96 well cell plate will require 5 ml of 2XCC2DMPE. Wash plate with ELx405 with Bath X, leaving a residual volume of 50 μL/well. Add 50 μL of 2XCC2DMPE & […] to each well. Stain for 30 minutes in the dark at RT.
Allow solution to sit for 10 minutes. Slowly mix in 370 mM BaCl2. This solution can be used to solvate compound plates. Note that compound plates are made at 1.5× drug concentration and not the usual 2X. Wash CC2 stained plate, again, leaving residual volume of 50 μL. Add 100 uL/well of the AY17 solution. Stain for 15 minutes in the dark at RT. Run plate on the optical reader.
(§4) The instrument comprises a microtiter plate handler, an optical system for exciting the coumarin dye while simultaneously recording the coumarin and oxonol emissions, a waveform generator, a current- or voltage-controlled amplifier, and a device for inserting electrodes in well. Under integrated computer control, this instrument passes user-programmed electrical stimulus protocols to cells within the wells of the microtiter plate.
Insert or use electrodes into each well to be assayed.
(§5) Use the current-controlled amplifier to deliver stimulation wave pulses for 3-5 s. Two seconds of pre-stimulus recording are performed to obtain the un-stimulated intensities. Five seconds of post-stimulation recording are performed to examine the relaxation to the resting state.
(§6) Data are analyzed and reported as normalized ratios of background-subtracted emission intensities measured in the 460 nm and 580 nm channels. Background intensities are then subtracted from each assay channel. Background intensities are obtained by measuring the emission intensities during the same time periods from identically treated assay wells in which there are no cells. The response as a function of time is then reported as the ratios obtained using the following formula: […]
(§7) The data is further reduced by calculating the initial (Ri) and final (Rf) ratios. These are the average ratio values during part or all of the pre-stimulation period, and during sample points during the stimulation period. The response to the stimulus R=Rf/Ri is then calculated.
Control responses are obtained by performing assays in the presence of a compound with the desired properties (positive control), such as mibefradil, and in the absence of pharmacological agents (negative control).

NaV1.3 = target: T2, NaV1.3 (Homo sapiens, UniProt Q9NY46); experiment: VIPR optical membrane potential assay with electrical stimulation, NaV1.3; assay type: cell-based; conditions: Table 9, NaV 1.3 receptors
T2 construct: expressed in transfected cells; host or cells: HEK293
T2 sequence (Q9NY46 whole entry): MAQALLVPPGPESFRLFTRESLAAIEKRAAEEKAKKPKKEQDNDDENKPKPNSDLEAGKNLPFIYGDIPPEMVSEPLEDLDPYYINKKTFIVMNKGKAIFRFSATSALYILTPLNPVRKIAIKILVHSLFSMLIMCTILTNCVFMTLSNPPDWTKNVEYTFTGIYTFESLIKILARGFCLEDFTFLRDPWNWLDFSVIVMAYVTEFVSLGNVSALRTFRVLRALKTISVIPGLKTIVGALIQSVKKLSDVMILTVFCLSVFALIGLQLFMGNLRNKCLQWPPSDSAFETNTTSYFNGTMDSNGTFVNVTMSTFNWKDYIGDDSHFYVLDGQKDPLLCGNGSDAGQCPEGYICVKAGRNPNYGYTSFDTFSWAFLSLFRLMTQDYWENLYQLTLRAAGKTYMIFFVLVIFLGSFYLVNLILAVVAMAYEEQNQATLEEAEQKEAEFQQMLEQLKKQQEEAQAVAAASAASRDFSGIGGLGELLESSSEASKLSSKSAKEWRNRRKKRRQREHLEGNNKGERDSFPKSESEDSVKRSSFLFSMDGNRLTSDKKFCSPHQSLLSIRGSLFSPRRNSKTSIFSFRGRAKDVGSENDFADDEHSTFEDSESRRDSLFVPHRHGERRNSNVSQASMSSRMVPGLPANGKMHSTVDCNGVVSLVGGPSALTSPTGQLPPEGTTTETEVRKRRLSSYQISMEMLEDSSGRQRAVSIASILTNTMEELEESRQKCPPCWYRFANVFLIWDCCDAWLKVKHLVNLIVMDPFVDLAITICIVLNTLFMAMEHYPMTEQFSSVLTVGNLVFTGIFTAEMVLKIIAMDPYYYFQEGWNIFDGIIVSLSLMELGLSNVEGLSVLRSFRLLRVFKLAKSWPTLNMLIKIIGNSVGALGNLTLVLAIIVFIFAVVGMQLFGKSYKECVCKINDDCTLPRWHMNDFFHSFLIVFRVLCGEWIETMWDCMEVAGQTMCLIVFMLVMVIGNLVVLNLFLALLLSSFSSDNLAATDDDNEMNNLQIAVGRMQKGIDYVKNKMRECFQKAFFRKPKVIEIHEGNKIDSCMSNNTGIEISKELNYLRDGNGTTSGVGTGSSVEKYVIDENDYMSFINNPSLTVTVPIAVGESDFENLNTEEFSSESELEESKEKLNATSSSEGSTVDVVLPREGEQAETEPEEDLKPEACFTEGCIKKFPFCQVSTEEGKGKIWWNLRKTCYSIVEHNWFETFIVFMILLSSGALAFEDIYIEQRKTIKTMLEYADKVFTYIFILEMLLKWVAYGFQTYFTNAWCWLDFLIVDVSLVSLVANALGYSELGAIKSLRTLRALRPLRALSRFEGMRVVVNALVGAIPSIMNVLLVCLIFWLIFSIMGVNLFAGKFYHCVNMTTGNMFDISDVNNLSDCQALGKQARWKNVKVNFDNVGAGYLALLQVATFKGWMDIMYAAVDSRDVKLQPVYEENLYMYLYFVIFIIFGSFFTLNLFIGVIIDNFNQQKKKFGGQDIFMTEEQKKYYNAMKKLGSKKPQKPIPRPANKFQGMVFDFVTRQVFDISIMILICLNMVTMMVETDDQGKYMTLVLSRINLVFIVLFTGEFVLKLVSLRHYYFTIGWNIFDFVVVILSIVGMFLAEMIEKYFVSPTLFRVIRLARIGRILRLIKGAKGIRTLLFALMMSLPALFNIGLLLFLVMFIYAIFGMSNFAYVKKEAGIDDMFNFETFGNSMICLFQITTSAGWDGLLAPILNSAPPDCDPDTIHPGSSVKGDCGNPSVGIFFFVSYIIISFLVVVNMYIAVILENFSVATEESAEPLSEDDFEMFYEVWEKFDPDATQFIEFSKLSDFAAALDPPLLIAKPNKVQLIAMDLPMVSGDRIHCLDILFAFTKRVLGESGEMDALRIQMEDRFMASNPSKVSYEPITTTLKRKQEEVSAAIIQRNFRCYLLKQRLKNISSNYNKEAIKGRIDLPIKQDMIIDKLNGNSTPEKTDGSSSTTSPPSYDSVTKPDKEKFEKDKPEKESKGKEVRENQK
Method: as §1, with “expressing the NaV of interest” for “expressing the CaV of interest”, “stimulated with either chemical or electrical means” for “stimulated with electrical means”, “evoke a NaV dependent membrane” for “evoke a CaV dependent membrane”
as §2
The following is an example of how NaV1.3 inhibition activity is measured using the optical membrane potential method#2. Other subtypes are performed in an analogous mode in a cell line expressing the NaV of interest.
HEK293 cells stably expressing NaV1.3 are plated into 96-well microtiter plates. After an appropriate incubation period, the cells are stained with the voltage sensitive dyes CC2-DMPE/DiSBAC2(3) as follows.
as §3, with “pluronic,” for “Pluronic,”
2X DISBAC2(3) with ABSC1=6 μM DISBAC2(3) and 1 mM ABSC1: The required amount of 10 mM DISBAC2(3) is added to a 50 ml conical tube and mixed with 1 μL 10% pluronic for each mL of solution to be made and vortexed together. Then HBSS/HEPES is added to make up 2× solution. Finally, the ABSC1 is added.
The 2X DiSBAC2(3) solution can be used to solvate compound plates. Note that compound plates are made at 2× drug concentration. Wash stained plate again, leaving residual volume of 50 Add 50 μL/well of the 2X DiSBAC2(3) w/ABSC1. Stain for 30 minutes in the dark at RT.
as §4
as §5, with “• 1. Insert or use electrodes into each well to be assayed. • 2. Use” for “Use”, “3” for “3-5”, “state. Data Analysis” for “state.”
as §6, §7
Control responses are obtained by performing assays in the presence of a compound with the desired properties (positive control), such as tetracaine, and in the absence of pharmacological agents (negative control). Responses to the negative (N) and positive (P) controls are calculated as above. The compound antagonist activity A is defined as: […]

SMILES | IC50 (CaV2.2) | IC50 (NaV1.3)
CCN(Cc1ccccc1)C(=O)c1cnc(N2CCCCC2)nc1-c1ccccc1F [compound 237] | 2 to 10 µM | > 10 µM
CC1CC(C)CN(C(=O)c2cnc(NCc3cccc(Cl)c3)nc2-c2ccc(C#N)cc2)C1 (centres unmarked) [compound 238] | > 10 µM | > 10 µM
CC1CCN(c2ncc(C(=O)N(C)C3CCCCC3)c(-c3ccc(C#N)cc3)n2)CC1 [compound 241] | > 10 µM | > 10 µM
O=C(NCc1ccccc1C(F)(F)F)c1cnc(N2CCOCC2)nc1-c1ccccc1F [compound 242] | > 10 µM | > 10 µM
N#Cc1ccc(-c2nc(NCC3CCCCC3)ncc2C(=O)N2CCCCC2)cc1 [compound 245] | > 10 µM | > 10 µM
N#Cc1ccc(-c2nc(NCc3ccccc3C(F)(F)F)ncc2C(=O)NCC2CC2)cc1 [compound 248] | > 10 µM | > 10 µM
CC(=O)NCCNc1ncc(C(=O)N2CCC(C)CC2)c(-c2ccc(-c3ccccc3)cc2)n1 [compound 251] | 2 to 10 µM | > 10 µM
O=C(c1cnc(NCc2ccccc2C(F)(F)F)nc1-c1ccccc1F)N1CCOCC1 [compound 252] | > 10 µM | > 10 µM
CCN(Cc1ccccc1)C(=O)c1cnc(N2CCCC(C(N)=O)C2)nc1-c1ccc(C#N)cc1 (centres unmarked) [compound 259] | > 10 µM | > 10 µM
N#Cc1ccc(-c2nc(NCc3ccc4c(c3)OCO4)ncc2C(=O)N2CCCC2)cc1 [compound 260] | > 10 µM | > 10 µM
Cc1ccc(CNc2ncc(C(=O)N3CCC(C)CC3)c(-c3ccc(C#N)cc3)n2)o1 [compound 261] | > 10 µM | > 10 µM
CCCCNc1ncc(C(=O)N(C)CC(C)C)c(-c2cccc(C)c2)n1 [compound 262] | > 10 µM | > 10 µM
CC(=O)N1CCN(c2ncc(C(=O)N3CCCCC3)c(-c3ccc(C#N)cc3)n2)CC1 [compound 267] | > 10 µM | > 10 µM
CCN(Cc1ccccc1)C(=O)c1cnc(NCc2ccc3c(c2)OCO3)nc1-c1ccc(C#N)cc1 [compound 269] | > 10 µM | > 10 µM
CC1CC(C)CN(C(=O)c2cnc(N3CCOCC3)nc2-c2ccccc2F)C1 (centres unmarked) [compound 279] | > 10 µM | > 10 µM
COc1cccc(OC)c1CNc1ncc(C(=O)N(C)C2CCCCC2)c(-c2ccc(C#N)cc2)n1 [compound 280] | > 10 µM | > 10 µM
CC(=O)NCCNC(=O)c1cnc(N2CCCC2)nc1-c1ccc(-c2ccccc2)cc1 [compound 281] | > 10 µM | > 10 µM

The next lines start with the values.

IC50 (CaV2.2) | IC50 (NaV1.3) | SMILES
2 to 10 µM | > 10 µM | CCN(Cc1cccc(C)c1)C(=O)c1cnc(NC2CCCC2)nc1-c1ccc(C#N)cc1 [compound 239]
> 10 µM | > 10 µM | Cc1cccc(-c2nc(N3CCOCC3)ncc2C(=O)N(Cc2ccccc2)C(C)C)c1 [compound 240]
> 10 µM | > 10 µM | CCN(Cc1ccccc1)C(=O)c1cnc(N2CCOCC2)nc1-c1cccc(C)c1 [compound 243]
> 10 µM | > 10 µM | CCN(Cc1ccccc1)C(=O)c1cnc(NCc2ccc(C)o2)nc1-c1ccc(C#N)cc1 [compound 244]
2 to 10 µM | > 10 µM | CCN(Cc1cccc(C)c1)C(=O)c1cnc(N(C)CC)nc1-c1ccccc1F [compound 246]
> 10 µM | > 10 µM | CCN(Cc1cccc(C)c1)C(=O)c1cnc(N2CCOCC2)nc1-c1ccc(C#N)cc1 [compound 247]
> 10 µM | > 10 µM | CCC(C)Nc1ncc(C(=O)NC2CCCCC2C)c(-c2ccccc2F)n1 (centres unmarked) [compound 253]
> 10 µM | > 10 µM | COc1cccc(OC)c1CNc1ncc(C(=O)N(C)CC(C)C)c(-c2ccccc2F)n1 [compound 255]
> 10 µM | > 10 µM | COCCNc1ncc(C(=O)N(C)C2CCCCC2)c(-c2ccc(C#N)cc2)n1 [compound 256]
> 10 µM | > 10 µM | COCCCNC(=O)c1cnc(NCC2CC2)nc1-c1cccc(C)c1 [compound 257]
> 10 µM | > 10 µM | COCCCNC(=O)c1cnc(NCCc2ccc(OC)cc2)nc1-c1cccc(C)c1 [compound 258]
2 to 10 µM | > 10 µM | CC(C)CN(C)C(=O)c1cnc(NCc2ccc3c(c2)OCO3)nc1-c1ccc(C#N)cc1 [compound 263]
> 10 µM | > 10 µM | Cc1cccc(-c2nc(NCc3ccc4c(c3)OCO4)ncc2C(=O)N2CCOCC2)c1 [compound 264]
> 10 µM | > 10 µM | CCN(Cc1cccc(C)c1)C(=O)c1cnc(NCCCOC)nc1-c1ccc(C#N)cc1 [compound 265]
> 10 µM | > 10 µM | CCN(Cc1cccc(C)c1)C(=O)c1cnc(N2CCOCC2)nc1-c1cccc(C)c1 [compound 266]
> 10 µM | > 10 µM | CCN(Cc1cccc(C)c1)C(=O)c1cnc(NCCCOC)nc1-c1ccccc1F [compound 268]
> 10 µM | > 10 µM | CC(C)CN(C)C(=O)c1cnc(N2CCCC2)nc1-c1ccccc1F [compound 270]
> 10 µM | > 10 µM | COc1ccc(CCN(C)c2ncc(C(=O)N(C)CC(C)C)c(-c3ccc(C#N)cc3)n2)cc1OC [compound 271]
> 10 µM | > 10 µM | COc1ccccc1CCNC(=O)c1cnc(N2CCCC2)nc1-c1cccc(C)c1 [compound 272]
> 10 µM | > 10 µM | CCC(C)Nc1ncc(C(=O)N(C)CC)c(-c2cccc(C)c2)n1 (centres unmarked) [compound 273]
> 10 µM | > 10 µM | COCCCNc1ncc(C(=O)N2CCCCC2)c(-c2cccc(C)c2)n1 [compound 274]
> 10 µM | > 10 µM | COCCNc1ncc(C(=O)N(C)C2CCCCC2)c(-c2ccccc2F)n1 [compound 276]
2 to 10 µM | > 10 µM | CC(C)N(Cc1ccccc1)C(=O)c1cnc(NCC2CC2)nc1-c1ccccc1F [compound 277]
